In patent US20220251079A1, “BENZO[B][1,8]NAPHTHYRIDINE ACETIC ACID DERIVATIVES AND METHODS OF USE” (STINGTHERA, INC., priority 2019, published 2022):

How the values were obtained:
[1] = target: T1, human STING protein (140-379) (Homo sapiens, UniProt Q86WV6, H232R); test: Radiometric filtration binding competition assay (WT_FBA_HIS-SUMO-hSWAT); conditions: read-out: WT-hSWAT IC50
T1 construct: 6XHIS-SUMO-hSTING (140-379); made in house; host or cells: BL-21(DE3) E. coli, pET vector
In short: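 His-SUMO-tagged STING ligand-binding domain (human 140-379 or mouse 139-328, 0.5 μM) preincubated 30 min with compound (8 points, 2-fold from 300 μM), then competed with a tritiated ligand. Complexes were filtered and counted by scintillation. IC50 from non-linear regression, with Ki extrapolated.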

hSTING-R232 = target: T2, hSTING-R232 (Homo sapiens, UniProt Q86WV6, H232R); test: STING Differential Scanning Fluorimetry (DSF) assay, human; format: binding; conditions: human STING R232-WT, 5 μM protein
T2 construct: recombinant mouse or human STING protein (aa140-379); 6xHis-SUMO elsewhere) (cleaved yes); made in house
In short: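 Purified STING C-terminal domain (aa140-379, R232), human or mouse, at 5 μM in 100 mM NaCl, 30 mM HEPES pH 7.5 with SYBR Orange, was heated at 0.5° C./min. Tm came from dF/dT; ΔTm and FC50 were derived from an 11-point 2-fold series from 300 μM, in duplicate.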

STING protein = target: T3, STING protein (Homo sapiens, UniProt Q86WV6, H232R); test: Cell based reporter assay of IRF activation (THP1-dual-KI R232, IRF luciferase); conditions: THP-1; read-out: THP1-dual-KI R232_IRF(Luciferase)_Activity Maximum measured (%)
T3 construct: host or cells: THP-1 dual reporter cells, TMEM173 modified from HAQ to R232 (THP1-dual-KI R232)
In short: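 THP-1 monocytes stably carried an ISG54/5×ISRE firefly luciferase IRF reporter, with TMEM173 knock-in H71R A230G Q293R (R232 variant), and there was no PMA pre-activation. Compounds were tested at 8 points, 2-fold, in duplicate from 150 µM. Cell Titer Glo was applied after supernatant removal.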

T2 sequence (Q86WV6 140-379 H232R): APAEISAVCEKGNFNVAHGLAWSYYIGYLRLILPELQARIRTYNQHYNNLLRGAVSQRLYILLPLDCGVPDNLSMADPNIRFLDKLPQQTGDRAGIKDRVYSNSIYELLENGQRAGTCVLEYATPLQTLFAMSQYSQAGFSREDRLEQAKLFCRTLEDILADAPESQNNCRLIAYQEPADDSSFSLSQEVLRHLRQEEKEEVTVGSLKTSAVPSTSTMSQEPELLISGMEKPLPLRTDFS
T1 sequence (Q86WV6 140-379 H232R): as above
T3 sequence (Q86WV6 whole entry H232R): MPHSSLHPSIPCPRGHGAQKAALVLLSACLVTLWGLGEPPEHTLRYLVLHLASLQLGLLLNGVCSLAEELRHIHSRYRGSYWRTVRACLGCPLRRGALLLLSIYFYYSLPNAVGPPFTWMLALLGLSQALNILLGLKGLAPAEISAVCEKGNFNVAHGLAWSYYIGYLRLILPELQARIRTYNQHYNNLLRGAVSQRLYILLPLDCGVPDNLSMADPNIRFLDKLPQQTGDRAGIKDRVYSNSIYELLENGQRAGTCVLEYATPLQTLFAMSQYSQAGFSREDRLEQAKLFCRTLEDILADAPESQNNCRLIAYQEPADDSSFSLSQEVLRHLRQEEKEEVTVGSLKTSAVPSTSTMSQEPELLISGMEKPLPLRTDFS

Row | IC50 [1] | WT_DSF_hSWAT Tm Shift (° C.) (hSTING-R232) | Emax (STING protein) | SMILES
1 | < 20 µM | D (“D” > 7° C.) | > 50% | CO[C@H]1C[C@@H](N(C)c2ccc3c(=O)c4ccc(C)c(SC)c4n(CC(=O)O)c3n2)C1 [Compound 69, 2-(2-(((1s,3s)-3-methoxycyclobutyl)(methyl)amino)-8-methyl-9-(methylthio)-5-oxobenzo[b][1,8]naphthyridin-10(5H)-yl)acetic acid]
2 | 20 to 100 µM | D (“D” > 7° C.) | 5 to 25% | CSc1c(Cl)ccc2c(=O)c3ccc(N(C)CCn4ccnc4)nc3n(CC(=O)O)c12 [Compound 71, Sodium 2-(8-chloro-2-{[2-(imidazole-1-yl)ethyl](methyl)amino}-9-(methylsulfanyl)-5-oxobenzo[b]1,8-naphthyridin-10-yl)acetate]
3 | 100 to 300 µM | D (“D” > 7° C.) | 5 to 25% | CCOc1c(Cl)ccc2c(=O)c3ccc(N(C)CCn4ccnc4)nc3n(CC(=O)O)c12 [Compound 72, sodium 2-(8-chloro-9-ethoxy-2-{[2-(imidazole-1-yl)ethyl](methyl)amino}-5-oxobenzo[b]1,8-naphthyridin-10-yl)acetate]
4 | < 20 µM | D (“D” > 7° C.) | > 50% | CSc1c(Cl)ccc2c(=O)c3ccc(N(C)c4ccccc4)nc3n(CC(=O)O)c12 [Compound 73, sodium 2-(8-chloro-2-(methyl(phenyl)amino)-9-(methylthio)-5-oxobenzo[b][1,8]naphthyridin-10(5H)-yl)acetate]
5 | 100 to 300 µM | D (“D” > 7° C.) | > 50% | COCCN(c1ccc2c(=O)c3ccc(Cl)c(SC)c3n(CC(=O)O)c2n1)[C@H]1C[C@@H](OC)C1 [Compound 74, sodium 2-(8-chloro-2-(((1s,3s)-3-methoxycyclobutyl)(2-methoxyethyl)amino)-9-(methylthio)-5-oxobenzo[b][1,8]naphthyridin-10(5H)-yl)acetate]
6 | 20 to 100 µM | D (“D” > 7° C.) | > 50% | COCCN(C)c1nc2c(cc1Cl)c(=O)c1ccc(Cl)c(SC)c1n2CC(=O)O [Compound 75, sodium 2-(3,8-dichloro-2-((2-methoxyethyl)(methyl)amino)-9-(methylthio)-5-oxobenzo[b][1,8]naphthyridin-10(5H)-yl)acetate]
7 | < 20 µM | D (“D” > 7° C.) | > 50% | CO[C@H]1C[C@@H](N(C)c2nc3c(cc2Cl)c(=O)c2ccc(Cl)c(SC)c2n3CC(=O)O)C1 [Compound 77, 2-(3,8-dichloro-2-(((1s,3s)-3-methoxycyclobutyl)(methyl)amino)-9-(methylthio)-5-oxobenzo[b][1,8]naphthyridin-10(5H)-yl)acetic acid]
8 | 20 to 100 µM | D (“D” > 7° C.) | > 50% | C=Cc1c(Cl)ccc2c(=O)c3ccc(N(C)C)nc3n(CC(=O)O)c12 [Compound 78, 2-(8-chloro-2-(dimethylamino)-5-oxo-9-vinylbenzo[b][1,8]naphthyridin-10(5H)-yl)acetic acid]
9 | 20 to 100 µM | D (“D” > 7° C.) | > 50% | CN(C)c1ccc2c(=O)c3ccc(Cl)c(-c4ccccc4)c3n(CC(=O)O)c2n1 [Compound 79, 2-(8-chloro-2-(dimethylamino)-5-oxo-9-phenylbenzo[b][1,8]naphthyridin-10(5H)-yl)acetic acid]
10 | 20 to 100 µM | D (“D” > 7° C.) | > 50% | CN(C)c1c(Cl)ccc2c(=O)c3ccc(N(C)CCn4ccnc4)nc3n(CC(=O)O)c12 [Compound 80, sodium 2-[8-chloro-9-(dimethylamino)-2-{[2-(imidazole-1-yl)ethyl](methyl)amino}-5-oxobenzo[b]1,8-naphthyridin-10-yl]acetate]

Further lines, the molecule ahead of its results:

Row | SMILES | IC50 [1] | WT_DSF_hSWAT Tm Shift (° C.) (hSTING-R232) | Emax (STING protein)
11 | CSc1c(Cl)ccc2c(=O)c3cc(Cl)c(N(C)C)nc3n(CC(=O)O)c12 [Compound 58, sodium 2-(3,8-dichloro-2-(dimethylamino)-9-(methylthio)-5-oxobenzo[b][1,8]naphthyridin-10(5H)-yl)acetate] | < 20 µM | D (“D” > 7° C.) | > 50%
12 | CCN(CCOC)c1nc2c(cc1Cl)c(=O)c1ccc(Cl)c(SC)c1n2CC(=O)O [Compound 59, sodium 2-(3,8-dichloro-2-(ethyl(2-methoxyethyl)amino)-9-(methylthio)-5-oxobenzo[b][1,8]naphthyridin-10(5H)-yl)acetate] | 20 to 100 µM | D (“D” > 7° C.) | > 50%
13 | CCOc1c(Cl)ccc2c(=O)c3ccc(NCC4CCOCC4)nc3n(CC(=O)O)c12 [Compound 60, sodium 2-(8-chloro-9-ethoxy-5-oxo-2-(((tetrahydro-2H-pyran-4-yl)methyl)amino)benzo[b][1,8]naphthyridin-10(5H)-yl)acetate] | 20 to 100 µM | D (“D” > 7° C.) | > 50%
14 | Cc1ccc2c(=O)c3ccc(N(C)C)nc3n(CC(=O)O)c2c1N(C)C [Compound 61, sodium 2-(2,9-bis(dimethylamino)-8-methyl-5-oxobenzo[b][1,8]naphthyridin-10(5H)-yl)acetate] | 20 to 100 µM | D (“D” > 7° C.) | > 50%
15 | CSc1c(C)ccc2c(=O)c3ccc(N(C)C)nc3n(CC(=O)O)c12 [Compound 62, sodium 2-(2-(dimethylamino)-8-methyl-9-(methylthio)-5-oxobenzo[b][1,8]naphthyridin-10(5H)-yl)acetate] | 20 to 100 µM | D (“D” > 7° C.) | > 50%
16 | CSc1c(C)ccc2c(=O)c3ccc(C(C)(C)C)nc3n(CC(=O)O)c12 [Compound 63, sodium 2-(2-(tert-butyl)-8-methyl-9-(methylthio)-5-oxobenzo[b][1,8]naphthyridin-10(5H)-yl)acetate] | 20 to 100 µM | D (“D” > 7° C.) | > 50%
17 | Cc1ccc2c(=O)c3ccc(C(C)(C)C#N)nc3n(CC(=O)O)c2c1N(C)C [Compound 64, sodium 2-(2-(2-cyanopropan-2-yl)-9-(dimethylamino)-8-methyl-5-oxobenzo[b][1,8]naphthyridin-10(5H)-yl)acetate] | 20 to 100 µM | D (“D” > 7° C.) | > 50%
18 | CSc1c(Cl)ccc2c(=O)c3ccc(C=C4COC4)nc3n(CC(=O)O)c12 [Compound 65, 2-(8-chloro-9-(methylthio)-2-(oxetan-3-ylidenemethyl)-5-oxobenzo[b][1,8]naphthyridin-10(5H)-yl)acetic acid] | 20 to 100 µM | D (“D” > 7° C.) | > 50%
19 | CO[C@H]1C[C@@H](N(C)c2ccc3c(=O)c4ccc(C)c(N(C)C)c4n(CC(=O)O)c3n2)C1 [Compound 67, 2-(9-(dimethylamino)-2-(((1s,3s)-3-methoxycyclobutyl)(methyl)amino)-8-methyl-5-oxobenzo[b][1,8]naphthyridin-10(5H)-yl)acetic acid] | < 20 µM | D (“D” > 7° C.) | > 50%
20 | CSc1c(Cl)ccc2c(=O)c3ccc(C4(C)CC4)nc3n(CC(=O)O)c12 [Compound 68, sodium 2-(8-chloro-2-(1-methylcyclopropyl)-9-(methylthio)-5-oxobenzo[b][1,8]naphthyridin-10(5H)-yl)acetate] | < 20 µM | D (“D” > 7° C.) | > 50%
